Measurements as given in patent US20100298141A1, “SUBSTITUTED PYRIDINE N-OXIDE HERBICIDES” (E. I. DU PONT DE NEMOURS AND COMPANY, priority 2007, published 2010).

Tests used:
eastern black nightshade = assay: Test C pre-/postemergence test; assay type: in vivo, Solanum ptycanthum
How it was run: (§1)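 Test chemicals were formulated with surfactant in a non-phytotoxic solvent and sprayed both on freshly planted seeds (preemergence) and on 1- to 4-leaf plants of 2–18 cm (postemergence). Flooded-paddy pots received compound directly into 3 cm of standing water, maintained for the test.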

woolly cupgrass = assay: Test C pre-/postemergence test; assay type: in vivo, Eriochloa villosa
How it was run: as §1

rice = assay: Test C flooded paddy test; assay type: in vivo, Oryza sativa; details: Flood
How it was run: (§2)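 Greenhouse pots flooded to 3 cm above soil at time of treatment received compound via the water, which stayed at that level.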

downy brome = assay: Test C pre-/postemergence test; assay type: in vivo, Bromus tectorum
How it was run: as §1

velvetleaf [1] = assay: Test C pre-/postemergence test; assay type: in vivo, Abutilon theophrasti
How it was run: as §1

giant foxtail = assay: Test C pre-/postemergence test; assay type: in vivo, Setaria faberii
How it was run: as §1

yellow nutsedge = assay: Test C pre-/postemergence test; assay type: in vivo, Cyperus esculentus
How it was run: as §1

duck salad = assay: Test C flooded paddy test; assay type: in vivo, Heteranthera limosa; details: Flood
How it was run: as §2

wild oat = assay: Test C pre-/postemergence test; assay type: in vivo, Avena fatua
How it was run: as §1

velvetleaf [2] = assay: Test A pre-/postemergence greenhouse test; assay type: in vivo, Abutilon theophrasti; details: for Velvetleaf plant response rating: 0 to 100 scale
How it was run: (§3)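 Seeds sown in a loam soil–sand blend got a preemergence directed soil spray of compound in a non-phytotoxic solvent mixture containing surfactant. Postemergence sprays of the same formulation went at the same time onto plants 2–10 cm tall at the one- to two-leaf stage. Injury was scored visually against untreated controls after about ten days in the greenhouse.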

redroot pigweed = assay: Test A pre-/postemergence greenhouse test; assay type: in vivo, Amaranthus retroflexus; details: for Pigweed plant response rating: 0 to 100 scale
How it was run: as §3

johnsongrass = assay: Test C pre-/postemergence test; assay type: in vivo, Sorghum halepense
How it was run: as §1

corn = assay: Test C pre-/postemergence test; assay type: in vivo, Zea mays
How it was run: as §1

wheat [3] = assay: Test A pre-/postemergence greenhouse test; assay type: in vivo, Triticum aestivum; details: for Wheat plant response rating: 0 to 100 scale
How it was run: as §3

catchweed bedstraw = assay: Test C pre-/postemergence test; assay type: in vivo, Galium aparine
How it was run: as §1

morningglory = assay: Test C pre-/postemergence test; assay type: in vivo, Ipomoea coccinea
How it was run: as §1

wheat [4] = assay: Test C pre-/postemergence test; assay type: in vivo, Triticum aestivum; details: for Wheat plant response rating: preemergence, scale 0 (no effect) to 100 (complete control)
How it was run: as §1

[5] = 31 g ai/ha, Preemergence, scale 0 to 100
[6] = preemergence, 125 g ai/ha, scale 0 (no effect) to 100 (complete control)
[7] = 31 g ai/ha, scale 0 to 100 (0 no effect, 100 complete control)
[8] = 62 g ai/ha, scale 0 to 100, 0 no effect, 100 complete control, 13 to 15 days
[9] = 125 g ai/ha, scale 0 to 100, 0 no effect, 100 complete control, 13 to 15 days
[10] = 250 g ai/ha, scale 0 to 100 (0 no effect, 100 complete control)
[11] = 62 g ai/ha, preemergence, scale 0 (no effect) to 100 (complete control)
[12] = Postemergence, 125 g ai/ha, 0 is no effect, 100 is complete control
[13] = Postemergence, 500 g ai/ha, 0 is no effect, 100 is complete control
[14] = Preemergence, 125 g ai/ha, 0 no effect, 100 complete control
[15] = Preemergence, 500 g ai/ha, 0 to 100 scale where 0 is no effect and 100 is complete control

## Cn1nc(C(F)(F)F)c(CS(=O)(=O)c2cccc[n+]2[O-])c1Cl [Compound 9]
Eastern black nightshade; [5]
  Nightshade plant response rating: 80
Eastern black nightshade; [6]
  Nightshade plant response rating: 100
Woolly cupgrass; [5]
  Cupgrass, Woolly plant response rating: 0
Woolly cupgrass; Preemergence, 250 g ai/ha
  Plant response rating (0 to 100), Cupgrass, Woolly: 100
Woolly cupgrass; [6]
  Cupgrass, Woolly plant response rating: 100
rice; [7]
  Plant response rating, Rice: 10
rice; [8]
  Plant response rating, Rice: 40
rice; [9]
  Plant response rating, Rice: 70
rice; [10]
  Plant response rating, Rice: 70
Downy brome; [5]
  Bromegrass, Downy plant response rating: 0
Downy brome; [11]
  Bromegrass, Downy plant response rating: 0
Downy brome; Preemergence, 250 g ai/ha
  Plant response rating (0 to 100), Bromegrass, Downy: 20
Downy brome; [6]
  Bromegrass, Downy plant response rating: 20
Velvetleaf [1]; Preemergence, 250 g ai/ha
  Plant response rating (0 to 100), Velvetleaf: 40
Velvetleaf [1]; [6]
  Velvetleaf plant response rating: 0
Giant foxtail; [5]
  Foxtail, Giant plant response rating: 85
Giant foxtail; Preemergence, 250 g ai/ha
  Plant response rating (0 to 100), Foxtail, Giant: 100
Giant foxtail; [6]
  Foxtail, Giant plant response rating: 100
Yellow nutsedge; [5]
  Nutsedge, Yellow plant response rating: 40
Yellow nutsedge; Preemergence, 250 g ai/ha
  Plant response rating (0 to 100), Nutsedge, Yellow: 100
Yellow nutsedge; [6]
  Nutsedge, Yellow plant response rating: 100
Duck salad; [7]
  Plant response rating, Ducksalad: 0
Duck salad; [8]
  Plant response rating, Ducksalad: 65
Duck salad; [9]
  Plant response rating, Ducksalad: 85
Duck salad; [10]
  Plant response rating, Ducksalad: 90
Wild oat; [5]
  Oat, Wild plant response rating: 0
Wild oat; [11]
  Oat, Wild plant response rating: 0
Wild oat; Preemergence, 250 g ai/ha
  Plant response rating (0 to 100), Oat, Wild: 55
Wild oat; [6]
  Oat, Wild plant response rating: 40
Velvetleaf [2]; [12]
  Velvetleaf plant response rating: 0
Velvetleaf [2]; [13]
  Velvetleaf plant response rating: 30
Velvetleaf [2]; [14]
  Velvetleaf plant response rating: 50
Velvetleaf [2]; [15]
  Plant response rating, Velvetleaf: 60
Redroot pigweed; [12]
  Pigweed plant response rating: 10
Redroot pigweed; [13]
  Pigweed plant response rating: 60
Redroot pigweed; [14]
  Pigweed plant response rating: 100
Redroot pigweed; [15]
  Plant response rating, Pigweed: 100
johnsongrass; [5]
  Johnsongrass plant response rating: 45
johnsongrass; Preemergence, 250 g ai/ha
  Plant response rating (0 to 100), Johnsongrass: 100
johnsongrass; [6]
  Johnsongrass plant response rating: 100
corn; [5]
  Corn plant response rating: 20
corn; Preemergence, 250 g ai/ha
  Plant response rating (0 to 100), Corn: 98
corn; [6]
  Corn plant response rating: 98
Wheat [3]; [12]
  Wheat plant response rating: 40
Wheat [3]; [13]
  Wheat plant response rating: 60
Wheat [3]; [14]
  Wheat plant response rating: 50
Wheat [3]; [15]
  Plant response rating, Wheat: 70
Catchweed bedstraw; [5]
  Galium plant response rating: 0
Catchweed bedstraw; [11]
  Galium plant response rating: 100
Catchweed bedstraw; Preemergence, 250 g ai/ha
  Plant response rating (0 to 100), Galium: 100
Catchweed bedstraw; [6]
  Galium plant response rating: 100
morningglory; [5]
  Morningglory plant response rating: 0
morningglory; Preemergence, 250 g ai/ha
  Plant response rating (0 to 100), Morningglory: 100
morningglory; [6]
  Morningglory plant response rating: 90
Wheat [4]; 62 g ai/ha
  Wheat plant response rating: 30
Wheat [4]; Preemergence, 250 g ai/ha
  Plant response rating (0 to 100), Wheat: 70
Wheat [4]; 125 g ai/ha
  Wheat plant response rating: 45
